The text below walks through data of PubChem BioAssay AID266 (DTP/NCI, 2004).

“And” between values parts separate entries of the source, which are not always exact repeats. Equal entries are not always repeated. Inconclusive results are not listed.

The test system of the assay is Nude mice, LX-1 lung xenograft intrarenal, tumor weight T/C. Put plainly: NCI In Vivo Anticancer Drug Screen. Data for tumor model Human Lung LX-1 Xenograft (intrarenal inoculation) in NU/NU BALB/C (nude) mice. As to conditions: endpoint: mean tumor weight change, higher = larger tumour. The procedure: The antitumor activity of compounds was measured in mice bearing transplantable tumors. Survival or tumor size were measured and the results are expressed as the measurement made in the treated group (T) divided by the measurement made in the vehicle treated control group (C). The tumor model used in this assay is Human Lung LX-1 Xenograft (intrarenal inoculation) in NU/NU BALB/C (nude) mice
(In general: In xenograft studies the graft and the host belong to different species.)

Setting [1] is: dose: 150.0 mg/kg/injection, schedule: Q04DX003 (sc), vehicle: Klucel (hydroxypropylcellulose) (HPC).
[2] abbreviates: dose: 300.0 mg/kg/injection, schedule: Q04DX003 (sc), vehicle: Klucel (hydroxypropylcellulose) (HPC).
[3] abbreviates: dose: 600.0 mg/kg/injection, schedule: Q04DX003 (sc), vehicle: Klucel (hydroxypropylcellulose) (HPC).
[4] abbreviates: dose: 50.0 mg/kg/injection, schedule: Q01DX010 (sc), vehicle: Klucel (hydroxypropylcellulose) (HPC).
Setting [5] is: dose: 150.0 mg/kg/injection, schedule: Q04DX003 (sc), vehicle: saline.
[6] abbreviates: dose: 300.0 mg/kg/injection, schedule: Q04DX003 (sc), vehicle: saline.

For `CN1CCc2c(c3ccccc3c3ccccc23)C1`, the T/C is, setting by setting: under setting [1], 58 % of control; under setting [2], 55 % of control; under setting [3], 48 % of control.

Take `COc1cc2cc(c1Cl)N(C)C(=O)C[C@H](OC(=O)[C@H](C)N(C)C(C)=O)[C@]1(C)O[C@H]1[C@H](C)[C@@H]1C[C@@](O)(NC(=O)O1)[C@H](OC)C=C/C=C(\C)C2`: the T/C by setting is: under setting [4], 72 % of control; (dose: 100.0 mg/kg/injection, schedule: Q01DX010 (sc), vehicle: Klucel (hydroxypropylcellulose) (HPC)) 3 % of control; (dose: 200.0 mg/kg/injection, schedule: Q01DX010 (sc), vehicle: Klucel (hydroxypropylcellulose) (HPC)) 1 % of control; (dose: 12.5 micrograms/kg/injection, schedule: Q01DX010 (sc), vehicle: Klucel (hydroxypropylcellulose) (HPC)) 224 % of control; (dose: 25.0 micrograms/kg/injection, schedule: Q01DX010 (sc), vehicle: Klucel (hydroxypropylcellulose) (HPC)) 77 % of control; (dose: 50.0 micrograms/kg/injection, schedule: Q01DX010 (sc), vehicle: Klucel (hydroxypropylcellulose) (HPC)) 73 % of control. For the same compound, the T/C is 32 % of control (dose: 100.0 micrograms/kg/injection, schedule: Q01DX010 (sc), vehicle: Klucel (hydroxypropylcellulose) (HPC)) and 2 % of control (dose: 200.0 micrograms/kg/injection, schedule: Q01DX010 (sc), vehicle: Klucel (hydroxypropylcellulose) (HPC)).

For `NCCCNCCSP(=O)(O)O`, the T/C runs as follows: (dose: 200.0 mg/kg/injection, schedule: Q04DX003 (sc), vehicle: saline) 99 % of control; (dose: 400.0 mg/kg/injection, schedule: Q04DX003 (sc), vehicle: saline) 78 % of control; (dose: 800.0 mg/kg/injection, schedule: Q04DX003 (sc), vehicle: saline) 80 % of control.

`CC(C#N)(C#N)N=Nc1ccc(Cl)cc1Cl`: the T/C runs as follows: (dose: 600.0 mg/kg/injection, schedule: Q04DX003 (sc), vehicle: saline with Tween-80) 124 % of control; (dose: 1200.0 mg/kg/injection, schedule: Q04DX003 (sc), vehicle: saline with Tween-80) 86 % of control; (dose: 2400.0 mg/kg/injection, schedule: Q04DX003 (sc), vehicle: saline with Tween-80) 102 % of control.

For the compound `CN(C)c1ccc2c(NCCCCCCNc3ccnc4cc(N(C)C)ccc34)ccnc2c1`, the T/C is, setting by setting: (dose: 37.5 mg/kg/injection, schedule: Q04DX003 (sc), vehicle: distilled water + Tween-80 + alcohol) 122 % of control; (dose: 75.0 mg/kg/injection, schedule: Q04DX003 (sc), vehicle: distilled water + Tween-80 + alcohol) 80 % of control; (dose: 150.0 mg/kg/injection, schedule: Q04DX003 (sc), vehicle: distilled water + Tween-80 + alcohol) 75 % of control.

Take `COc1ccc2c(ccc3oc([N+](=O)[O-])cc32)c1`: the T/C by setting is: under setting [1], 88 % of control; under setting [2], 96 % of control; under setting [3], 86 % of control.

For `S=P(N1CC1)(N1CC1)N1CC1`, the T/C (dose: 4.0 mg/kg/injection, schedule: Q01DX010 (sc), vehicle: saline) was 77 % of control.

Regarding `Cc1c(-c2ccc(-c3ccccc3F)cc2)nc2ccc(F)cc2c1C(=O)O`, the T/C reads like this: (dose: 6.9 mg/kg/injection, schedule: Q01DX009 (ip), vehicle: water) 7 % of control and 13 % of control and 31 % of control; (dose: 19.2 mg/kg/injection, schedule: Q01DX009 (ip), vehicle: water) 5 % of control and 14 % of control and 21 % of control; (dose: 32.0 mg/kg/injection, schedule: Q01DX009 (ip), vehicle: water) 15 % of control and 17 % of control.

Take `Cn1cc(C2NC(=O)c3ccccc3N2)c2ccccc21` (centres undefined): the T/C is 83 % of control and 103 % of control under setting [2]; 111 % of control and 92 % of control (dose: 900.0 mg/kg/injection, schedule: Q04DX003 (sc), vehicle: Klucel (hydroxypropylcellulose) (HPC)); 90 % of control and 103 % of control (dose: 1200.0 mg/kg/injection, schedule: Q04DX003 (sc), vehicle: Klucel (hydroxypropylcellulose) (HPC)).

On to `Nc1cc2[nH]cnc2c(=O)[nH]1`, for which the T/C is 75 % of control (dose: 25.0 mg/kg/injection, schedule: Q01DX010 (sc), vehicle: saline) and 89 % of control (dose: 50.0 mg/kg/injection, schedule: Q01DX010 (sc), vehicle: saline).

On to `C[C@@]1(CO)[C@H](O)CC[C@@]2(C)[C@H]1CC[C@H]1C[C@@H]3C[C@@]12CC[C@@]3(O)COC(=O)CN`, for which the T/C reads like this: (dose: 100.0 mg/kg/injection, schedule: Q01DX010 (sc), vehicle: saline + alcohol) 109 % of control; (dose: 200.0 mg/kg/injection, schedule: Q01DX010 (sc), vehicle: saline + alcohol) 54 % of control.

Consider `Nc1nc(=S)c2[nH]cnc2[nH]1`, for which the T/C reads like this: (dose: 0.4 mg/kg/injection, schedule: Q01DX010 (sc), vehicle: Klucel (hydroxypropylcellulose) (HPC)) 105 % of control; (dose: 1.6 mg/kg/injection, schedule: Q01DX010 (sc), vehicle: Klucel (hydroxypropylcellulose) (HPC)) 76 % of control; (dose: 3.2 mg/kg/injection, schedule: Q01DX010 (sc), vehicle: Klucel (hydroxypropylcellulose) (HPC)) 58 % of control.

Take `Nc1nc(Br)nc2c1ncn2C1CC(O)C(CO)O1` (centres undefined): the T/C by setting is: (dose: 7.5 mg/kg/injection, schedule: Q03DX003 (ip), vehicle: saline) 66 % of control; (dose: 15.0 mg/kg/injection, schedule: Q03DX003 (ip), vehicle: saline) 77 % of control; (dose: 30.0 mg/kg/injection, schedule: Q03DX003 (ip), vehicle: saline) 72 % of control; (dose: 60.0 mg/kg/injection, schedule: Q03DX003 (ip), vehicle: saline) 59 % of control; (dose: 120.0 mg/kg/injection, schedule: Q03DX003 (ip), vehicle: saline) 74 % of control.

On to `CN(N=O)C(=O)N[C@@H](C=O)[C@@H](O)[C@H](O)[C@H](O)CO`, for which the T/C runs as follows: under setting [5], 40 % of control; under setting [6], 4 % of control.

For `CCCCCCCCCCC(OC(C)=O)C1CCC(C2CCC(C(O)CCCCCCCCCCCCC3C=C(C)OC3=O)O2)O1` (centres undefined), the T/C by setting is: (dose: 5.0 mg/kg/injection, schedule: Q04DX003 (sc), vehicle: water) 93 % of control; (dose: 10.0 mg/kg/injection, schedule: Q04DX003 (sc), vehicle: water) 114 % of control; (dose: 20.0 mg/kg/injection, schedule: Q04DX003 (sc), vehicle: water) 108 % of control; (dose: 40.0 mg/kg/injection, schedule: Q04DX003 (sc), vehicle: water) 110 % of control.

On to `OCC(O)C(O)C(O)C(O)CO` (centres undefined), for which the T/C runs as follows: (dose: 75.0 mg/kg/injection, schedule: Q04DX003 (ip), vehicle: saline) 108 % of control; (dose: 600.0 mg/kg/injection, schedule: Q04DX003 (ip), vehicle: saline) 109 % of control; (dose: 1200.0 mg/kg/injection, schedule: Q04DX003 (ip), vehicle: saline) 94 % of control.

Consider `CCCCCc1cc(/C=C2/N=C(c3ccc[nH]3)C=C2OC)[nH]c1C`, for which the T/C is 73 % of control (dose: 8.0 mg/kg/injection, schedule: Q04DX003 (sc), vehicle: saline with Tween-80); 54 % of control (dose: 16.0 mg/kg/injection, schedule: Q04DX003 (sc), vehicle: saline with Tween-80); 59 % of control (dose: 32.0 mg/kg/injection, schedule: Q04DX003 (sc), vehicle: saline with Tween-80); 67 % of control (dose: 64.0 mg/kg/injection, schedule: Q04DX003 (sc), vehicle: saline with Tween-80).

In the case of `O=C1CCC(=O)N1CO`, the T/C by setting is: under setting [5], 95 % of control; under setting [6], 93 % of control; (dose: 600.0 mg/kg/injection, schedule: Q04DX003 (sc), vehicle: saline) 82 % of control; (dose: 1200.0 mg/kg/injection, schedule: Q04DX003 (sc), vehicle: saline) 63 % of control.

As for `C[C@@H]1C[C@@H]([C@H](O)CC2CC(=O)NC(=O)C2)C(=O)[C@@H](C)C1`, the T/C (dose: 18.75 mg/kg/injection, schedule: Q04DX003 (sc), vehicle: saline) was 94 % of control; the T/C (dose: 37.5 mg/kg/injection, schedule: Q04DX003 (sc), vehicle: saline) was 114 % of control; the T/C (dose: 75.0 mg/kg/injection, schedule: Q04DX003 (sc), vehicle: saline) was 118 % of control; the T/C under setting [5] was 110 % of control.

As to `O=C(CCBr)N1CCN(C(=O)CCBr)CC1`, the T/C under setting [4] was 48 % of control.
